Values of other authors as cited in US7981605B2, “Epidermal growth factor receptor mutations” (Amgen Inc., priority 2005, dated 2011).

Key:
A431 tumor xenografts = conditions: athymic mice
[1] = test system: NSCLC tumors with EGFr mutations; conditions: deletions in amino acids 746-759 region, L858R, L861Q, G719C, G719S, R776C/L858R (Lynch, Paez, Pao 2004)

Molecule | formation of A431 xenografts (A431 tumor xenografts) | sensitivity of NSCLC tumors with EGFr mutations [1]
panitumumab: a human IgG2 monoclonal antibody against human EGFr; human anti-EGFr antibody (Amgen) | preventing the formation of human epidermoid carcinoma A431 xenografts | –
C#Cc1cccc(Nc2ncnc3cc(OCCOC)c(OCCOC)cc23)c1 [erlotinib, N-(3-ethynylphenyl)-6,7-bis(2-methoxyethoxy)-4-quinazolinamine] | – | display sensitivity
